Laboratory results taken from ChEMBL document CHEMBL1134431, “Chemoenzymatic synthesis of functionalized cyclohexylglycines and alpha-methylcyclohexylglycines via Kazmaier-Claisen rearrangement” (Bioorg Med Chem Lett, 2001).

How the values were obtained:
Stromelysin-1 = Stromelysin-1 (Homo sapiens, UniProt P08254); experiment: Inhibition of Stromelysin (Matrix metalloprotease-3)
[1] = target: 72 kDa type IV collagenase (Homo sapiens, UniProt P08253); experiment: Inhibition of gelatinase A (Matrix metalloprotease-2)
Sequence of 72 kDa type IV collagenase (P08253 whole entry): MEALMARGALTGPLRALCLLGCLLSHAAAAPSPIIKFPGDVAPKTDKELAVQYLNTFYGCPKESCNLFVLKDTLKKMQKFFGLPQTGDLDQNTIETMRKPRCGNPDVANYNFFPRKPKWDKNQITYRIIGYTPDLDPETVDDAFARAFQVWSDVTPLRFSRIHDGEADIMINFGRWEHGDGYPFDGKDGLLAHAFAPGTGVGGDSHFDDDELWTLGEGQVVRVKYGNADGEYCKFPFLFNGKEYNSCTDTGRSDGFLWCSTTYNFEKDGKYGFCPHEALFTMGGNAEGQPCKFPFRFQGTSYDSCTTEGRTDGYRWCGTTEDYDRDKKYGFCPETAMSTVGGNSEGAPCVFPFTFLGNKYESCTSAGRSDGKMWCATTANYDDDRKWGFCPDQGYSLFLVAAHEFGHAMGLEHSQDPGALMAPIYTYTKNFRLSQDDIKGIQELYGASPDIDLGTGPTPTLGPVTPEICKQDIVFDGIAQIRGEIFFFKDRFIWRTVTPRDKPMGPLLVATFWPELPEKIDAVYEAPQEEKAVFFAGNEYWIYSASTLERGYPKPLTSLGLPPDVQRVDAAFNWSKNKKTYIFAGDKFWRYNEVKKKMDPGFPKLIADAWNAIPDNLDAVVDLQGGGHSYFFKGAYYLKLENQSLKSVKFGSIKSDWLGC

Collagenase 3 = Collagenase 3 (Homo sapiens, UniProt P45452); experiment: Inhibition of Collagenase 3 (Matrix metalloprotease-13)

Sequence of Stromelysin-1 (P08254 whole entry): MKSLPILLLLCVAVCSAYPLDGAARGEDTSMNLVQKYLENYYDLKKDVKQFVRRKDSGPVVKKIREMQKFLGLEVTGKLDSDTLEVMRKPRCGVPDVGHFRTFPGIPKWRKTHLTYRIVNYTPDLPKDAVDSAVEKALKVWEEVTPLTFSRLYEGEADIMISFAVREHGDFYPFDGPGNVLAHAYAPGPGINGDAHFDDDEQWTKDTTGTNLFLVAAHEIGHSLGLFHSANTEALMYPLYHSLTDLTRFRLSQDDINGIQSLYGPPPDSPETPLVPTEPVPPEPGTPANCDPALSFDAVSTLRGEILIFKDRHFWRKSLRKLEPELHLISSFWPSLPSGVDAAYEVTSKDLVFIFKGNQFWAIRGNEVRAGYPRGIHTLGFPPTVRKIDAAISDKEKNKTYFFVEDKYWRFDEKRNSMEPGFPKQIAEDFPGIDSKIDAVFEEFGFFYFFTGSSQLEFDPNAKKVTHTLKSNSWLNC

Row | Structure (SMILES) | IC50 (Stromelysin-1) [nM] | IC50 [1] [nM] | IC50 (Collagenase 3) [nM]
1 | COc1ccc(-c2ccc(S(=O)(=O)N[C@@](C)(C(=O)O)C3CCC(O)CC3)cc2)cc1 (some centres not stated) | 6150 | 251 | 338
2 | COc1ccc(-c2ccc(S(=O)(=O)N[C@@H](C(=O)O)C3C=C[C@@H](O)CC3)cc2)cc1 (some centres not stated) | 2490 | 20 | 176
3 | COc1ccc(-c2ccc(S(=O)(=O)N[C@@H](C(=O)O)C3CCC(O)CC3)cc2)cc1 (some centres not stated) | 1220 | 12 | 30
4 | COc1ccc(-c2ccc(S(=O)(=O)N[C@@H](C(=O)O)C3CC[C@H](O)C=C3Br)cc2)cc1 (some centres not stated) | 3800 | 38 | 131
